Bridge positions count the residues as written; N and C are the ends. Ends that are not written are not given here. Peptide text beside a SMILES is read from it.
Experiments:
[1] = In vivo intracellular peptide delivery to the pancreas (confocal microscopy); parameters: species or system NOD mice; conditions: single i.p. injection (0.7 mg FITC-labeled peptide/mouse or FITC of equivalent fluorescence); 2 h after injection
Description: Cell-penetrating peptide (cSN50, MW=3149; cSN50.1, MW=2986), and non-cell-penetrating peptide (cN50, MW=1651), were synthesized, purified, filter-sterilized, and analyzed as described elsewhere (Torgerson et al. (1998) J Immunol 161: 6084-6092; Liu et al. (2000) J Biol Chem 275: 16774-16778). To monitor the intracellular delivery of peptides to pancreas, cSN50 peptide was coupled with fluorescein isothiocyanate (FITC, Pierce) according to the manufacturer's protocol.
For in vivo detection of fluorescein-labeled peptides in the pancreas, NOD mice were sacrificed at 2 h after intraperitoneal (i.p.) injection of 0.7 mg of FITC-labeled cSN50 peptide/mouse. The pancreata were washed with saline and prepared for cryosections (10 μm thickness). Control solution of FITC alone with equivalent fluorescence units was injected separately to track distribution to the pancreas.
Intracellular delivery of a Nuclear Transport Modifier to the pancreas reduces islet inflammation (insulitis). […] It was first determined whether cSN50 would be delivered to the pancreas, the primary site of autoimmune attack against beta cells in pancreatic islets. […] Using confocal microscopy, the pancreatic delivery of FITC-labeled cSN50 peptide following a single intraperitoneal (i.p.) injection was assessed. […]

[2] = system: autoimmune diabetes in NOD mice; experiment: Autoimmune diabetes progression in cyclophosphamide-synchronized NOD mice (blood glucose); assay type: in vivo; conditions: general statement, experiments described herein
Description: NOD/LtJ, NOD-BDC2.5 and C57BL/6 mice were purchased from the Jackson Laboratories (Bar Harbor, Me.) at 6-8 weeks of age. All mice were housed and maintained according to the guidelines for use and care of laboratory animals as set forth by Vanderbilt University and regulated via the Vanderbilt IACUC. All NOD mice were monitored twice weekly for the development of diabetes by blood glucose measurement with FreeStyle® FastTake test strips (Abbott Laboratories, Abbott Park, Ill.). Two consecutive glucose measurements >220 mg/dl constituted a diagnosis of diabetes. A colony of NOD mice kept by a collaborating laboratory in the same animal suite has a spontaneous diabetes incidence of 80-90% in females by 30 weeks of age indicating an animal environment that is conducive for diabetes development.
At 10-11 weeks of age, female NOD mice received an intraperitoneal bolus injection of 200 mg/kg cyclophosphamide (Sigma). Cyclophosphamide was prepared by reconstitution of powder in sterile saline for injection.
45 h after diabetes synchronization with cyclophosphamide, treatment with cSN50 or control was initiated. Mice receiving cSN50 were given 35 μg/g of cSN50 i.p. every two hours for the next 48 h. Control mice received either saline or non-cell penetrating cN50 peptide at molar equivalent (20 μg/g). cN50 peptide, contains the cyclized NLS but lacks the membrane translocating motif. […]

NOD mice = experiment: Toxicity observation and clinical chemistry in treated NOD mice
Description: ALT and BUN levels were determined on a VITROS 250 Chemistry analyzer using multi-layered vitros slides and colorimetric or enzyme rate tests as appropriate.
Ten week old female NOD mice received one dose of Cy (0.2 mg/g); after 45 h, intracellular peptide delivery was initiated with cSN50 (35 μg/g) or with control cN50 and continued every 2 h for 48 h. Serum was obtained daily from the saphenous vein and measurements of ALT (FIG. 8A) and BUN (FIG. 8B) were performed in 7 mice in each group.

[3] = Continued peptide delivery in other disease models, toxicity; assay type: in vivo; conditions: up to 8 weeks, health, survival, weight gain, liver enzymes, blood cell counts normal
Description: Reduction or complete elimination of islet-destructive autoreactive T and B cells may be useful in treating T1D and potentially other autoimmune diseases. Other autoimmune disorders include Systemic Lupus Erythematosus, Multiple Sclerosis, Rheumatoid Arthritis, Crohn Diseases, and Ulcerative Collitis. Under conditions of metabolic, inflammatory, and oxidant stress, beta cell mass may be further controlled by important interactions between bone marrow-derived cells and islet beta cells. Transcriptional modulation of these interactions via targeting of the nuclear import machinery represents an important new opportunity for therapeutic development. Even though cSN50 can modulate nuclear transport of several stress-responsive transcription factors that utilize importin alpha 1/karyopherin alpha 5 (as well as other importins/karyopherins, e.g., importin alpha 5/karyopherin) for nuclear trafficking, intracellular delivery of the Nuclear Transport Modifier is rapid and restricted to the relatively short intracellular persistence of the injected cargo (Hawiger J., (1999) Current Opinion in Chem. Biology 3:89-94). Despite high intensity dosing of cSN50 in the protocols disclosed herein, short-term or long-term adverse effects were not observed. […] In preliminary studies, spontaneous disease was reversed in 40% of the NOD mice during a continuing NTM treatment for 3 weeks.

[4] = Anti-cSN50 peptide antibody induction (ELISA); assay type: in vivo, NOD mice; conditions: limit of detection 10 ng/mL

## fluorescein isothiocyanate [FITC]
[1]
  delivery to / distribution in the pancreas: did not penetrate the organ

## AAVALLPAVLLALLAPCVQRKRQKLMPC (disulfide 17-28 (inferred)) [cSN50.1, cSN50 with the tyrosine at position 18 removed to increase solubility]
[2]
  islet protection from immune destruction: effectively protected islets from immune destruction

## CSCC[C@@H]1NC(=O)[C@H](CC(C)C)NC(=O)[C@H](CCCCN)NC(=O)[C@H](CCC(N)=O)NC(=O)[C@H](CCCNC(=N)N)NC(=O)[C@H](CCCCN)NC(=O)[C@H](CCCNC(=N)N)NC(=O)[C@H](CCC(N)=O)NC(=O)[C@H](C(C)C)NC(=O)[C@H](Cc2ccc(O)cc2)NC(=O)[C@@H](NC(=O)[C@@H]2CCCN2C(=O)[C@H](C)NC(=O)[C@H](CC(C)C)NC(=O)[C@H](CC(C)C)NC(=O)[C@H](C)NC(=O)[C@H](CC(C)C)NC(=O)[C@H](CC(C)C)NC(=O)[C@@H](NC(=O)[C@H](C)NC(=O)[C@@H]2CCCN2C(=O)[C@H](CC(C)C)NC(=O)[C@H](CC(C)C)NC(=O)[C@H](C)NC(=O)[C@@H](NC(=O)[C@H](C)NC(=O)[C@H](C)N)C(C)C)C(C)C)CSSC[C@@H](C(=O)O)NC(=O)[C@@H]2CCCN2C1=O [cSN50] (H-AAVALLPAVLLALLAPCYVQRKRQKLMPC-OH; disulfide 17-29; N-terminus and C-terminus assumed)
NOD mice; 365 days of observation after 48 h treatment
  overt signs of toxicity: did not display overt signs of toxicity
NOD mice; after intensive treatment
  acquired infection: no signs of acquired infection
  weight gain: normal weight gain
NOD mice; serum daily, 7 mice per group, vs cN50 control
  BUN level: not significantly different from control
NOD mice; serum daily, 7 mice per group, vs control
  ALT level: not significantly different from control
NOD mice; serum, 7 mice per group
  alkaline phosphatase, creatinine, creatine kinase, and total bilirubin: below the limit of detection
[3]
  toxicity on continued delivery: without evidence of toxicity
[4]
  anti-cSN50 peptide antibody induction: not detected

— patent US9388224B2, “Compositions for preserving insulin-producing cells and insulin production and treating diabetes” (VANDERBILT UNIVERSITY, priority 2011, dated 2016)
